Results published in the supplement of paper PMC11061612.

What was measured:
Carboplatin = compound: C1CC(C1)(C(=O)[O-])C(=O)[O-].N.N.[Pt+2] [Carboplatin]; details: max 10 µM
In short: (§1)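 Cancer cell lines in 1536-well plates (7.5 μl DMEM/F12 or RPMI, 10% FBS) were held 24 hours at 37°C and 5% CO2 and then dosed for 72 hours at a final DMSO of typically 0.2%. Viability was taken from CellTiter-Glo 2.0 luminescence, scaled between blank-well and DMSO-well means. Curves were fitted as two-parameter logistic models with a non-linear mixed effects model, from which the single-agent IC50 was taken.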

AZD5363 = compound: C1CN(CCC1(C(=O)N[C@@H](CCO)C2=CC=C(C=C2)Cl)N)C3=NC=NC4=C3C=CN4 [AZD5363]; details: max 10 µM
In short: as §1

AZD1775 = compound: C=CCn1c(=O)c2cnc(Nc3ccc(N4CCN(C)CC4)cc3)nc2n1-c1cccc(C(C)(C)O)n1 [AZD1775]; details: max 3 µM
In short: as §1

Trametinib = compound: CC(=O)Nc1cccc(-n2c(=O)n(C3CC3)c(=O)c3c(Nc4ccc(I)cc4F)n(C)c(=O)c(C)c32)c1 [Trametinib]; details: max 1 µM
In short: as §1

Paclitaxel = compound: CC(=O)O[C@H]1C(=O)[C@@]2(C)[C@H]([C@H](OC(=O)c3ccccc3)[C@]3(O)C[C@H](OC(=O)[C@H](O)[C@@H](NC(=O)c4ccccc4)c4ccccc4)C(C)=C1C3(C)C)[C@]1(OC(C)=O)CO[C@@H]1C[C@@H]2O [Paclitaxel]; details: max 3 µM
In short: as §1

Palbociclib = compound: CC(=O)c1c(C)c2cnc(Nc3ccc(N4CCNCC4)cn3)nc2n(C2CCCC2)c1=O [Palbociclib]; details: max 10 µM
In short: as §1

AZD1390 = compound: CC(C)n1c(=O)n(C)c2cnc3cc(F)c(-c4ccc(OCCCN5CCCCC5)nc4)cc3c21 [AZD1390]; details: max 0.3 µM
In short: as §1

Venetoclax = compound: CC1(C)CCC(CN2CCN(c3ccc(C(=O)NS(=O)(=O)c4ccc(NCC5CCOCC5)c([N+](=O)[O-])c4)c(Oc4cnc5[nH]ccc5c4)c3)CC2)=C(c2ccc(Cl)cc2)C1 [Venetoclax]; details: max 1 µM
In short: as §1

Dasatinib = compound: CC1=C(C(=CC=C1)Cl)NC(=O)C2=CN=C(S2)NC3=CC(=NC(=N3)C)N4CCN(CC4)CCO [Dasatinib]; details: max 2 µM
In short: as §1

SG3199 = compound: CC1=CN2[C@@H](C1)C=NC3=CC(=C(C=C3C2=O)OC)OCCCCCOC4=C(C=C5C(=C4)N=C[C@@H]6CC(=CN6C5=O)C)OC [SG3199]; details: max 0.001 µM
In short: as §1

AZD2811 = compound: CCN(CCO)CCCOc1ccc2c(Nc3cc(CC(=O)Nc4cccc(F)c4)[nH]n3)ncnc2c1 [AZD2811]; details: max 1 µM
In short: as §1

SN-38 = compound: CCc1c2c(nc3ccc(O)cc13)-c1cc3c(c(=O)n1C2)COC(=O)[C@]3(O)CC [SN-38]; details: max 0.3 µM
In short: as §1

AZD0156 = compound: CN(C)CCCOc1ccc(-c2ccc3ncc4c(c3c2)n(C2CCOCC2)c(=O)n4C)cn1 [AZD0156]; details: max 3 µM
In short: as §1

AZD4320 = compound: CN(CC[C@H](CSC1=CC=CC=C1)NC2=C(C=C(C=C2)S(=O)(=O)NC(=O)C3=CC=C(C=C3)N4CCC(CC4)[C@H](C5=CC=CC=C5C6=CC=C(C=C6)Cl)O)S(=O)(=O)C(F)(F)F)CCO [AZD4320]; details: max 1 µM
In short: as §1

Alisertib = compound: COc1cc(Nc2ncc3c(n2)-c2ccc(Cl)cc2C(c2c(F)cccc2OC)=NC3)ccc1C(=O)O [Alisertib]; details: max 10 µM
In short: as §1

Etoposide = compound: COc1cc([C@@H]2c3cc4c(cc3[C@@H](O[C@@H]3O[C@@H]5CO[C@@H](C)O[C@H]5[C@H](O)[C@H]3O)[C@H]3COC(=O)[C@H]23)OCO4)cc(OC)c1O [Etoposide]; details: max 10 µM
In short: as §1

Gefitinib = compound: COc1cc2ncnc(Nc3ccc(F)c(Cl)c3)c2cc1OCCCN1CCOCC1 [Gefitinib]; details: max 10 µM
In short: as §1

Prexasertib = compound: COc1cccc(OCCCN)c1-c1cc(Nc2cnc(C#N)cn2)n[nH]1 [Prexasertib]; details: max 1 µM
In short: as §1

Doxorubicin = compound: COc1cccc2c1C(=O)c1c(O)c3c(c(O)c1C2=O)C[C@@](O)(C(=O)CO)C[C@@H]3O[C@H]1C[C@H](N)[C@H](O)[C@H](C)O1 [Doxorubicin]; details: max 1 µM
In short: as §1

AZD5153 = compound: COc1nnc2ccc(N3CCC(c4ccc(OCCN5CCN(C)C(=O)[C@H]5C)cc4)CC3)nn12 [AZD5153]; details: max 1 µM
In short: as §1

Lapatinib = compound: CS(=O)(=O)CCNCc1ccc(-c2ccc3ncnc(Nc4ccc(OCc5cccc(F)c5)c(Cl)c4)c3c2)o1 [Lapatinib]; details: max 10 µM
In short: as §1

AZD8186 = compound: C[C@@H](Nc1cc(F)cc(F)c1)c1cc(C(=O)N(C)C)cc2c(=O)cc(N3CCOCC3)oc12 [AZD8186]
In short: as §1

Crizotinib = compound: C[C@@H](Oc1cc(-c2cnn(C3CCNCC3)c2)cnc1N)c1c(Cl)ccc(F)c1Cl [Crizotinib]; details: max 10 µM
In short: as §1

Savolitinib = compound: C[C@@H](c1ccc2nccn2c1)n1nnc2ncc(-c3cnn(C)c3)nc21 [Savolitinib]; details: max 1 µM
In short: as §1

AZD6738 = compound: C[C@@H]1COCCN1C2=NC(=NC(=C2)C3(CC3)[S@](=N)(=O)C)C4=C5C=CNC5=NC=C4 [AZD6738]; details: max 10 µM
In short: as §1

AZD5991 = compound: Cc1c2c(nn1C)CSCc1cc(n(C)n1)CSc1cc(c3ccccc3c1)OCCCc1c(C(=O)O)n(C)c3c-2c(Cl)ccc13 [AZD5991]; details: max 1 µM
In short: as §1

AZD7648 = compound: Cc1cc2ncnn2cc1Nc1ncc2c(n1)n(C1CCOCC1)c(=O)n2C [AZD7648]; details: max 10 µM
In short: as §1

Taselisib = compound: Cc1nc(-c2cn3c(n2)-c2ccc(-c4cnn(C(C)(C)C(N)=O)c4)cc2OCC3)n(C(C)C)n1 [Taselisib]; details: max 10 µM
In short: as §1

Selumetinib = compound: Cn1cnc2c(F)c(Nc3ccc(Br)cc3Cl)c(C(=O)NOCCO)cc21 [Selumetinib]; details: max 10 µM
In short: as §1

SRA737 = compound: N#Cc1cnc(Nc2cc(NC[C@H]3CNCCO3)c(C(F)(F)F)cn2)cn1 [SRA737]; details: max 10 µM
In short: as §1

MK-2206 = compound: NC1(c2ccc(-c3nc4ccn5c(=O)[nH]nc5c4cc3-c3ccccc3)cc2)CCC1 [MK-2206]; details: max 10 µM
In short: as §1

Gemcitabine = compound: Nc1ccn([C@@H]2O[C@H](CO)[C@@H](O)C2(F)F)c(=O)n1 [Gemcitabine]; details: max 0.3 µM
In short: as §1

[1] = compound: O=C(Nc1ccc2[nH]nc(-c3ccncc3)c2c1)[C@@H]1CCN(CC(=O)N2CCN(c3ccc(-c4ncccn4)cc3)CC2)C1; details: max 5 µM
In short: as §1

Olaparib = compound: O=C(c1cc(Cc2n[nH]c(=O)c3ccccc23)ccc1F)N1CCN(C(=O)C2CC2)CC1 [Olaparib]; details: max 10 µM
In short: as §1

5-Fluorouracil = compound: O=c1[nH]cc(F)c(=O)[nH]1 [5-Fluorouracil]; details: max 20 µM
In short: as §1

Capivasertib = compound: C1CN(CCC1(C(=O)N[C@@H](CCO)C2=CC=C(C=C2)Cl)N)C3=NC=NC4=C3C=CN4 [Capivasertib]; details: max 10 µM
In short: as §1

Row | Cell Line | IC50, cell viability 72 h (Carboplatin) | IC50, cell viability 72 h (AZD5363) | IC50, cell viability 72 h (AZD1775) | IC50, cell viability 72 h (Trametinib) | IC50, cell viability 72 h (Paclitaxel) | IC50, cell viability 72 h (Palbociclib) | IC50, cell viability 72 h (AZD1390) | IC50, cell viability 72 h (Venetoclax) | IC50, cell viability 72 h (Dasatinib) | IC50, cell viability 72 h (SG3199) | IC50, cell viability 72 h (AZD2811) | IC50, cell viability 72 h (SN-38) | IC50, cell viability 72 h (AZD0156) | IC50, cell viability 72 h (AZD4320) | IC50, cell viability 72 h (Alisertib) | IC50, cell viability 72 h (Etoposide) | IC50, cell viability 72 h (Gefitinib) | IC50, cell viability 72 h (Prexasertib) | IC50, cell viability 72 h (Doxorubicin) | IC50, cell viability 72 h (AZD5153) | IC50, cell viability 72 h (Lapatinib) | IC50, cell viability 72 h (AZD8186; max 10 µM) | IC50, cell viability 72 h (Crizotinib) | IC50, cell viability 72 h (Savolitinib) | IC50, cell viability 72 h (AZD6738) | IC50, cell viability 72 h (AZD5991) | IC50, cell viability 72 h (AZD7648) | IC50, cell viability 72 h (Taselisib) | IC50, cell viability 72 h (Selumetinib) | IC50, cell viability 72 h (SRA737) | IC50, cell viability 72 h (MK-2206) | IC50, cell viability 72 h (Gemcitabine) | IC50, cell viability 72 h [1] | IC50, cell viability 72 h (Olaparib) | IC50, cell viability 72 h (5-Fluorouracil) | IC50, cell viability 72 h (Capivasertib) | IC50, cell viability 72 h (AZD8186; max 3 µM)
1 | BICR22 (Oral Cavity Carcinoma) | > 10 µM | > 10 µM | 1.85 µM | > 1 µM | < 0.003 µM | > 10 µM | > 0.3 µM | > 1 µM | > 2 µM | > 0.001 µM | > 1 µM | 0.00659 µM | > 3 µM | > 1 µM | 6.99 µM | 3.15 µM | > 10 µM | 0.0545 µM | 0.158 µM | > 1 µM | > 10 µM | > 10 µM | > 10 µM | > 1 µM | 3.41 µM | > 1 µM | > 10 µM | 0.928 µM | > 10 µM | > 10 µM | > 10 µM | 0.0121 µM | > 5 µM | > 10 µM | 1.85 µM |  | 
2 | CAPAN-2 (Pancreatic Carcinoma) | > 10 µM | > 10 µM | 2.7 µM | > 1 µM | > 3 µM | > 10 µM | > 0.3 µM | > 1 µM | 0.21 µM | > 0.001 µM | > 1 µM | > 0.3 µM | > 3 µM | > 1 µM | > 10 µM | > 10 µM | > 10 µM | 0.646 µM | > 1 µM | > 1 µM | > 10 µM | > 10 µM | > 10 µM | > 1 µM | > 10 µM | > 1 µM | > 10 µM | > 10 µM | > 10 µM | > 10 µM | > 10 µM | > 0.3 µM | > 5 µM | > 10 µM | > 20 µM |  | 
3 | FU97 (Gastric Carcinoma) | > 10 µM | > 10 µM | > 3 µM |  | > 3 µM | > 10 µM | > 0.3 µM | > 1 µM | > 2 µM | > 0.001 µM | > 1 µM | > 0.3 µM | > 3 µM | > 1 µM | > 10 µM | > 10 µM | > 10 µM | > 1 µM | > 1 µM | 0.288 µM | > 10 µM | > 10 µM | > 10 µM | > 1 µM | > 10 µM | > 1 µM | > 10 µM | > 10 µM | > 10 µM | > 10 µM | > 10 µM | > 0.3 µM | > 5 µM | > 10 µM | > 20 µM |  | 
4 | HCC1954 (Breast Carcinoma) |  |  | 1.97 µM | > 1 µM |  | > 10 µM | > 0.3 µM | > 1 µM | > 2 µM | > 0.001 µM | > 1 µM | > 0.3 µM | > 3 µM | > 1 µM | > 10 µM |  | > 10 µM | 0.0598 µM | > 1 µM | > 1 µM | 6.26 µM |  | > 10 µM | > 1 µM | > 10 µM | 0.133 µM | > 10 µM | 0.122 µM | > 10 µM |  | > 10 µM |  |  | > 10 µM |  | 3.24 µM | > 3 µM
5 | LN-405 (Glioblastoma) |  |  | > 3 µM | > 1 µM |  | > 10 µM | > 0.3 µM | > 1 µM | > 2 µM | > 0.001 µM | > 1 µM | > 0.3 µM | > 3 µM | > 1 µM | > 10 µM |  | > 10 µM | > 1 µM | > 1 µM | > 1 µM | > 10 µM |  | > 10 µM | > 1 µM | > 10 µM | > 1 µM | > 10 µM | 6.55 µM | > 10 µM |  | > 10 µM |  |  | > 10 µM |  | > 10 µM | > 3 µM
6 | NCI-H2591 (Mesothelioma) |  |  | > 3 µM | > 1 µM |  | > 10 µM | > 0.3 µM | > 1 µM | > 2 µM | > 0.001 µM | > 1 µM | 0.0717 µM | > 3 µM | > 1 µM | > 10 µM |  | > 10 µM | > 1 µM | > 1 µM | > 1 µM | > 10 µM |  | > 10 µM | > 1 µM | > 10 µM | > 1 µM | > 10 µM | > 10 µM | > 10 µM |  | > 10 µM |  |  | > 10 µM |  | > 10 µM | > 3 µM
